# Assay results as given in patent US20020137929A1, “1 - (3-heterocyclylphenyl) isothiourea, -isourea, -guanidine and -amidine herbicidal agents” (Intellectual Property Department, BASF Aktiengesellschaft, priority 1998, published 2002).
# Tests used:
# [1] = test system: GLXMAW (Soybean, Williams); test: Postemergence herbicidal evaluation; assay type: in vivo, Glycine max, (L.) Merr. cv Williams; settings: postemergence
# Outline: (§1)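 Visual 0-9 injury score (stand, vigor, malformation, size, chlorosis, appearance vs untreated) taken four to five weeks post-spray, averaged across repeat tests. Test plants about two weeks old; foliar spray of acetone/water (1:1) with 0.5% surfactant delivering ~0.0156-0.500 kg active/ha.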
# [2] = test system: IPOHE (Morningglory, Ivyleaf); test: Postemergence herbicidal evaluation; assay type: in vivo, Ipomoea hederacea; settings: postemergence
# Outline: as §1
# [3] = test system: IPOHE (Morningglory, Ivyleaf); test: Preemergence herbicidal evaluation; assay type: in vivo, Ipomoea hederacea; settings: rated 4-5 weeks after treatment
# Outline: (§2)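 Scores use a 0–9 visual scale covering stand, vigor, malformation, size and chlorosis relative to controls, rated four to five weeks after treatment. Before emergence, soil-planted seeds were sprayed with compound in aqueous acetone at roughly 0.0156–0.500 kg/ha and held in the greenhouse.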
# [4] = test system: SAGPY (Arrowhead (Pygmaea)); test: Preemergence weed control under flooded paddy conditions; assay type: in vivo, Sagittaria pygmaea; settings: rated 3-4 weeks after treatment
# Outline: (§3)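 Visual injury scored 0-9 against control three to four weeks post-treatment, greenhouse-grown. Application: acetone/water (50/50) solutions dosed directly into flood water (1.5-3 cm over silt loam, planted top 0.5 cm), roughly 0.0313 to 0.500 kg/ha active ingredient.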
# [5] = test system: CHEAL (Lambsquarters, Common); test: Postemergence herbicidal evaluation; assay type: in vivo, Chenopodium album; settings: postemergence
# Outline: as §1
# CASOB (Sicklepod) [6] = test: Preemergence herbicidal evaluation; assay type: in vivo, Cassia obtusifolia; settings: rated 4-5 weeks after treatment
# Outline: as §2
# AMBEL (Ragweed, Common) [7] = test: Preemergence herbicidal evaluation; assay type: in vivo, Ambrosia artemisifolia; settings: rated 4-5 weeks after treatment
# Outline: as §2
# [8] = test system: CHEAL (Lambsquarters, Common); test: Preemergence herbicidal evaluation; assay type: in vivo, Chenopodium album; settings: rated 4-5 weeks after treatment
# Outline: as §2
# [9] = test system: TRZAWR (Wheat, Winter, cv Riband); test: Postemergence herbicidal evaluation; assay type: in vivo, Triticum aestivum; settings: postemergence
# Outline: as §1
# [10] = test system: GLXMAW (Soybean, Williams); test: Preemergence herbicidal evaluation; assay type: in vivo, Glycine max, (L.) Merr. cv Williams; settings: rated 4-5 weeks after treatment
# Outline: as §2
# ECHCG (Barnyardgrass) = test: Postemergence herbicidal evaluation; assay type: in vivo, Echinochloa crus-galli; settings: postemergence
# Outline: as §1
# AMBEL (Ragweed, Common) [11] = test: Postemergence herbicidal evaluation; assay type: in vivo, Ambrosia artemisifolia; settings: postemergence
# Outline: as §1
# ABUTH (Velvetleaf) = test: Preemergence herbicidal evaluation; assay type: in vivo, Abutilon theophrasti; settings: rated 4-5 weeks after treatment
# Outline: as §2
# ORYSAT (Rice, Tebonnet) = test: Preemergence herbicidal evaluation; assay type: in vivo, Oryza sativa, (L.) Tebonnet; settings: rated 4-5 weeks after treatment
# Outline: as §2
# MOOVA (Monochoria) = test: Preemergence weed control under flooded paddy conditions; assay type: in vivo, Monochoria vaginalis; settings: rated 3-4 weeks after treatment
# Outline: as §3
# CASOB (Sicklepod) [12] = test: Postemergence herbicidal evaluation; assay type: in vivo, Cassia obtusifolia; settings: postemergence
# Outline: as §1
smiles,measurement,setting,value
"CCOC(=O)CN1C(=O)CSC1=Nc1cc(-n2c(=O)cc(C(F)(F)F)n(C)c2=O)c(F)cc1Cl [Compound 8, Ethyl 2-{{2-chloro-5-[3,6-dihydro-3-methyl-2,6-dioxo-4-(trifluoromethyl)-1(2H)pyrimidinyl]-4-fluorophenyl}imino}-4-oxo-3-thiazolidineacetate]",GLXMAW herbicidal rating,[1]; rate 0.0157 kg/ha,7.5
same,GLXMAW herbicidal rating,[1]; rate 0.0313 kg/ha,7.6
same,GLXMAW herbicidal rating,[1]; rate 0.0625 kg/ha,7.9
same,GLXMAW herbicidal rating,[1]; rate 0.1250 kg/ha,8.4
same,IPOHE herbicidal rating,[2]; rate 0.0157 kg/ha,9.0
same,IPOHE herbicidal rating,[2]; rate 0.0313 kg/ha,9.0
same,IPOHE herbicidal rating,[2]; rate 0.0625 kg/ha,9.0
same,IPOHE herbicidal rating,[2]; rate 0.1250 kg/ha,9.0
same,IPOHE preemergence herbicidal rating,[3]; rate 0.0156 kg/ha,1.1
same,IPOHE preemergence herbicidal rating,[3]; rate 0.0313 kg/ha,4.4
same,IPOHE preemergence herbicidal rating,[3]; rate 0.0625 kg/ha,6.4
same,IPOHE preemergence herbicidal rating,[3]; rate 0.1250 kg/ha,8.6
same,IPOHE preemergence herbicidal rating,[3]; rate 0.2500 kg/ha,8.6
same,IPOHE preemergence herbicidal rating,[3]; rate 0.5000 kg/ha,9.0
same,Herbicidal rating SAGPY,[4]; 0.0313 kg/ha,0.0
same,Herbicidal rating SAGPY,[4]; 0.0625 kg/ha,0.0
same,Herbicidal rating SAGPY,[4]; 0.1250 kg/ha,0.0
same,Herbicidal rating SAGPY,[4]; 0.2500 kg/ha,0.0
same,CHEAL herbicidal rating,[5]; rate 0.0157 kg/ha,5.0
same,CHEAL herbicidal rating,[5]; rate 0.0313 kg/ha,7.5
same,CHEAL herbicidal rating,[5]; rate 0.0625 kg/ha,8.4
same,CHEAL herbicidal rating,[5]; rate 0.1250 kg/ha,9.0
same,CASOB preemergence herbicidal rating,CASOB (Sicklepod) [6]; rate 0.0156 kg/ha,0.0
same,CASOB preemergence herbicidal rating,CASOB (Sicklepod) [6]; rate 0.0313 kg/ha,0.1
same,CASOB preemergence herbicidal rating,CASOB (Sicklepod) [6]; rate 0.0625 kg/ha,1.2
same,CASOB preemergence herbicidal rating,CASOB (Sicklepod) [6]; rate 0.1250 kg/ha,1.7
same,CASOB preemergence herbicidal rating,CASOB (Sicklepod) [6]; rate 0.2500 kg/ha,3.3
same,CASOB preemergence herbicidal rating,CASOB (Sicklepod) [6]; rate 0.5000 kg/ha,3.8
same,AMBEL preemergence herbicidal rating,"AMBEL (Ragweed, Common) [7]; rate 0.0156 kg/ha",1.6
same,AMBEL preemergence herbicidal rating,"AMBEL (Ragweed, Common) [7]; rate 0.0313 kg/ha",4.5
same,AMBEL preemergence herbicidal rating,"AMBEL (Ragweed, Common) [7]; rate 0.0625 kg/ha",5.7
same,AMBEL preemergence herbicidal rating,"AMBEL (Ragweed, Common) [7]; rate 0.1250 kg/ha",8.5
same,AMBEL preemergence herbicidal rating,"AMBEL (Ragweed, Common) [7]; rate 0.2500 kg/ha",8.9
same,AMBEL preemergence herbicidal rating,"AMBEL (Ragweed, Common) [7]; rate 0.5000 kg/ha",9.0
same,CHEAL preemergence herbicidal rating,[8]; rate 0.0156 kg/ha,9.0
same,CHEAL preemergence herbicidal rating,[8]; rate 0.0313 kg/ha,9.0
same,CHEAL preemergence herbicidal rating,[8]; rate 0.0625 kg/ha,9.0
same,CHEAL preemergence herbicidal rating,[8]; rate 0.1250 kg/ha,9.0
same,CHEAL preemergence herbicidal rating,[8]; rate 0.2500 kg/ha,9.0
same,CHEAL preemergence herbicidal rating,[8]; rate 0.5000 kg/ha,9.0
same,TRZAWR herbicidal rating,[9]; rate 0.0157 kg/ha,3.5
same,TRZAWR herbicidal rating,[9]; rate 0.0313 kg/ha,5.1
same,TRZAWR herbicidal rating,[9]; rate 0.0625 kg/ha,6.4
same,TRZAWR herbicidal rating,[9]; rate 0.1250 kg/ha,6.4
same,GLXMAW preemergence herbicidal rating,[10]; rate 0.0156 kg/ha,0.2
same,GLXMAW preemergence herbicidal rating,[10]; rate 0.0313 kg/ha,1.1
same,GLXMAW preemergence herbicidal rating,[10]; rate 0.0625 kg/ha,3.2
same,GLXMAW preemergence herbicidal rating,[10]; rate 0.1250 kg/ha,5.9
same,GLXMAW preemergence herbicidal rating,[10]; rate 0.2500 kg/ha,7.9
same,GLXMAW preemergence herbicidal rating,[10]; rate 0.5000 kg/ha,8.8
same,ECHCG herbicidal rating,ECHCG (Barnyardgrass); rate 0.0157 kg/ha,3.0
same,ECHCG herbicidal rating,ECHCG (Barnyardgrass); rate 0.0313 kg/ha,2.1
same,ECHCG herbicidal rating,ECHCG (Barnyardgrass); rate 0.0625 kg/ha,5.3
same,ECHCG herbicidal rating,ECHCG (Barnyardgrass); rate 0.1250 kg/ha,8.2
same,AMBEL herbicidal rating,"AMBEL (Ragweed, Common) [11]; rate 0.0157 kg/ha",9.0
same,AMBEL herbicidal rating,"AMBEL (Ragweed, Common) [11]; rate 0.0313 kg/ha",7.8
same,AMBEL herbicidal rating,"AMBEL (Ragweed, Common) [11]; rate 0.0625 kg/ha",8.3
same,AMBEL herbicidal rating,"AMBEL (Ragweed, Common) [11]; rate 0.1250 kg/ha",8.6
same,ABUTH preemergence herbicidal rating,ABUTH (Velvetleaf); rate 0.0156 kg/ha,7.3
same,ABUTH preemergence herbicidal rating,ABUTH (Velvetleaf); rate 0.0313 kg/ha,8.4
same,ABUTH preemergence herbicidal rating,ABUTH (Velvetleaf); rate 0.0625 kg/ha,8.7
same,ABUTH preemergence herbicidal rating,ABUTH (Velvetleaf); rate 0.1250 kg/ha,9.0
same,ABUTH preemergence herbicidal rating,ABUTH (Velvetleaf); rate 0.2500 kg/ha,9.0
same,ABUTH preemergence herbicidal rating,ABUTH (Velvetleaf); rate 0.5000 kg/ha,9.0
same,ORYSAT preemergence herbicidal rating,"ORYSAT (Rice, Tebonnet); rate 0.0156 kg/ha",0.6
same,ORYSAT preemergence herbicidal rating,"ORYSAT (Rice, Tebonnet); rate 0.0313 kg/ha",0.8
same,ORYSAT preemergence herbicidal rating,"ORYSAT (Rice, Tebonnet); rate 0.0625 kg/ha",2.8
same,ORYSAT preemergence herbicidal rating,"ORYSAT (Rice, Tebonnet); rate 0.1250 kg/ha",5.4
same,ORYSAT preemergence herbicidal rating,"ORYSAT (Rice, Tebonnet); rate 0.2500 kg/ha",7.1
same,ORYSAT preemergence herbicidal rating,"ORYSAT (Rice, Tebonnet); rate 0.5000 kg/ha",8.5
same,Herbicidal rating MOOVA,MOOVA (Monochoria); 0.0313 kg/ha,9.0
same,Herbicidal rating MOOVA,MOOVA (Monochoria); 0.0625 kg/ha,9.0
same,Herbicidal rating MOOVA,MOOVA (Monochoria); 0.1250 kg/ha,9.0
same,Herbicidal rating MOOVA,MOOVA (Monochoria); 0.2500 kg/ha,9.0
same,CASOB herbicidal rating,CASOB (Sicklepod) [12]; rate 0.0157 kg/ha,0.0
same,CASOB herbicidal rating,CASOB (Sicklepod) [12]; rate 0.0313 kg/ha,1.8
same,CASOB herbicidal rating,CASOB (Sicklepod) [12]; rate 0.0625 kg/ha,3.0
same,CASOB herbicidal rating,CASOB (Sicklepod) [12]; rate 0.1250 kg/ha,3.0
